# Experimental data published in patent US8513303B2, “Antimicrobial agent” (De Montfort University, priority 2007, dated 2013).
# How the values were obtained:
# Assay type in all cases: cell-based
# [1] = tested on: Escherichia coli ATCC 10536; test: Quantitative suspension test, log10 reduction in bacterial numbers; settings: 0.2% w/v H2O2
# Source text: Neutralisation (nullification of activity) of antimicrobial agents is required to prevent inhibitory concentrations from being transferred to the recovery medium (as discussed, for example, in Russell A. D. (2004) Factors influencing the efficacy of antimicrobial agents in Principles and Practice of Disinfection Preservation and Sterilization, 4th edition, eds Fraise A. P., Lambert P. A. and Maillard J. Y., pages 98-127, Oxford: Blackwell Publishing Ltd. and Russell A. D., Ahonkhai I. and Rogers, D. T. (1979) A review: microbiological applications of the inactivation of antibiotics and other antimicrobial agents. Journal of Applied Bacteriology, 46, 207-245). Thus, samples were removed at desired time points and then any hydrogen peroxide present in the sample was neutralised (i.e. deactivated) using catalase.
# In the examples, catalase from bovine liver was used to neutralise the activity of any remaining hydrogen peroxide (as described in Russell A. D., Ahonkhai I. and Rogers, D. T. (1979), A review: microbiological applications of the inactivation of antibiotics and other antimicrobial agents, Journal of Applied Bacteriology, 46, 207-245) after the appropriate contact time during the experiments. Control experiments were conducted to establish whether the neutraliser nullified the activity of hydrogen peroxide and whether the neutraliser was toxic to the micro-organisms tested.
# The effect of acidic pH conditions (pH 3.47 to 3.54) were investigated with and without hydrogen peroxide and air.
# A quantitative suspension test (as described in Reybrouck G. (1998), The testing of disinfectants, International Biodeterioration and Biodegradation, 41, 269-272) based on the general principles of European quantitative suspension tests (BS EN1040:2005: Chemical disinfectants and antiseptics, Quantitative suspension test for the evaluation of basic bactericidal activity of chemical disinfectants and antiseptics, Test method and requirements (phase 1), London: British Standards Institute; BS EN 1276:1997: Chemical disinfectants and antiseptics, Quantitative suspension test for the evaluation of bactericidal activity of chemical disinfectants and antiseptics used in food, industrial, domestic, and institutional areas, Test method and requirements (phase 2, step 1). London: British Standards Institute) was used to establish the basic level of activity of the catalyst in the absence of organic matter. All tests were performed independently at least three times unless otherwise stated. Low concentrations (0.2-1% w/v) of hydrogen peroxide were used so that increases in antimicrobial activity could be detected if present.
# Bacteria were inoculated into 10 ml volumes of nutrient broth and incubated at 37° C. for 18 to 24 hours at a shaking speed of 100 revolutions/minute. After incubation, the bacteria were washed by centrifugation to remove the nutrient broth; supernatants were discarded and the bacterial pellets were resuspended in sterilised distilled water. 7.5 ml of the washed bacterial suspension was added to 67.5 ml of hydrogen peroxide and/or distilled water to give a specific final concentration (ranging from 0 to 1% w/v—see Tables below) of hydrogen peroxide and approximately 8 log10 colony forming units (CFU)/mL of bacteria. The resultant mixture was stirred magnetically throughout the experiment. Where applicable, 1 g (+/−0.1 g) of either modified PAN fibre (referred to as PAN1 (control) or PAN2 (control)) or catalyst (referred to as PAN1 catalyst or PAN2 catalyst or PAN3 catalyst) comprising PAN fibres was added to the resultant mixture. The experiments were performed with or without air. If air was used, 2.5 L/min was supplied via. a filtered air pump and a sterilised Pyrex gas distribution tube.
# After a specific contact time (see Tables below), 1 ml aliquots were removed from the experimental flask and transferred into 9 ml of neutraliser (catalase) for 5 minutes to inactivate any remaining hydrogen peroxide.
# [2] = tested on: Bacillus subtilis subsp. spizizenii ATCC 6633 spore; test: Testing for antimicrobial activity against spores (sporicidal suspension test)
# Experimental: Spore suspensions were prepared based on the general principles of European quantitative suspension tests for evaluation of sporicidal activity (BS EN14347:2005: chemical disinfectants and antiseptics, basic sporicidal activity, test method and requirements (phase 1, step 1), London: British Standards Institute). Tryptone soya broth was seeded with spores from a previous batch and incubated at 37° C. to obtain an exponential growth phase culture. 10 mL of this culture was transferred into a Roux flask containing manganese-sulfate sporulation agar so that the inoculum came into contact with all of the surface of the agar. The Roux flasks were incubated at 37° C. for 2 days and for 21 days at 30° C., cultures were recovered, checked for sporulation and stored in water at 5° C. Sporicidal activity was then assessed using the method outlined previously (but with half the volume/weight of hydrogen peroxide, water, organism and catalyst) using 5 to 7.5% w/v hydrogen peroxide (see testing antimicrobial activity section). After neutralisation, a 1 mL sample was added to 12 to 15 mL of melted tryptone soya agar cooled to 45° C. Petri dishes were incubated for a minimum of 4 days and a maximum of 7 days at 37° C. and the log10 reduction in bacterial spore numbers calculated.
# [3] = tested on: Pseudomonas aeruginosa ATCC 15442; test: Antimicrobial activity of PAN catalyst under buffered neutral pH conditions at room temperature and 35° C.; settings: 0.5% w/v H2O2; for log reduction: 35° C., held at neutral pH; for Mean log10 reduction in CFU/ml: room temperature, buffered at neutral pH
# Experimental: Experiments were conducted using the method outlined previously (see testing antimicrobial activity section), but hydrogen peroxide and catalyst were prepared in phosphate buffer solution. Experiments were carried out at room temperature and 35° C.
smiles,measurement,setting,value
"OO [Example H2O2, hydrogen peroxide]",Mean log10 reduction in CFU/ml,"[1]; air 2.5 L/min, 10 min",1.33 (0.27) log10 CFU/ml
same,Mean log10 reduction in CFU/ml,"[1]; air 2.5 L/min, 20 min",2.68 (0.22) log10 CFU/ml
same,Mean log10 reduction in CFU/ml,"[1]; air 2.5 L/min, 30 min",3.98 (0.28) log10 CFU/ml
same,Mean log10 reduction in CFU/ml,"[1]; air 2.5 L/min, 40 min",4.79 (0.43) log10 CFU/ml
same,Mean log10 reduction in CFU/ml,"[1]; air 2.5 L/min, 50 min",>5.58 (0) log10 CFU/ml
same,Mean log10 reduction in CFU/ml,"[1]; air 2.5 L/min, 50 min, listed as hydrogen peroxide",greater than 5 log10 CFU/ml
same,Mean log10 reduction in CFU/ml,"[1]; air 2.5 L/min, 60 min",>5.58 (0) log10 CFU/ml
same,Mean log10 reduction in CFU/ml,"[1]; no air, 10 min",1.01 (0.36) log10 CFU/ml
same,Mean log10 reduction in CFU/ml,"[1]; no air, 20 min",2.20 (0.42) log10 CFU/ml
same,Mean log10 reduction in CFU/ml,"[1]; no air, 30 min",2.67 (0.52) log10 CFU/ml
same,Mean log10 reduction in CFU/ml,"[1]; no air, 40 min",3.52 (0.57) log10 CFU/ml
same,Mean log10 reduction in CFU/ml,"[1]; no air, 50 min",4.21 (0.19) log10 CFU/ml
same,Mean log10 reduction in CFU/ml,"[1]; no air, 60 min",4.76 (0.39) log10 CFU/ml
same,Mean log10 reduction in CFU/ml,"[1]; no air, 60 min, listed as hydrogen peroxide",4.76 log10 CFU/ml
same,Mean log10 reduction in CFU/ml,"[1]; acidic pH 3.47 to 3.54, air 2.5 L/min, 10 min",2.16 log10 CFU/ml
same,Mean log10 reduction in CFU/ml,"[1]; acidic pH 3.47 to 3.54, air 2.5 L/min, 20 min",3.35 log10 CFU/ml
same,Mean log10 reduction in CFU/ml,"[1]; acidic pH 3.47 to 3.54, air 2.5 L/min, 30 min",4.46 log10 CFU/ml
same,Mean log10 reduction in CFU/ml,"[1]; acidic pH 3.47 to 3.54, air 2.5 L/min, 40 min",≧5.46 log10 CFU/ml
same,Mean log10 reduction in CFU/ml,"[1]; acidic pH 3.47 to 3.54, air 2.5 L/min, 40 min, listed as hydrogen peroxide",greater than 5 log10 CFU/ml
same,Mean log10 reduction in CFU/ml,"[1]; acidic pH 3.47 to 3.54, air 2.5 L/min, 50 min",>5.46 log10 CFU/ml
same,Mean log10 reduction in CFU/ml,"[1]; acidic pH 3.47 to 3.54, air 2.5 L/min, 60 min",>5.46 log10 CFU/ml
same,Mean log10 reduction in CFU/ml,"[1]; acidic pH 3.47 to 3.54, no air, 10 min",2.43 log10 CFU/ml
same,Mean log10 reduction in CFU/ml,"[1]; acidic pH 3.47 to 3.54, no air, 20 min",3.40 log10 CFU/ml
same,Mean log10 reduction in CFU/ml,"[1]; acidic pH 3.47 to 3.54, no air, 30 min",4.21 log10 CFU/ml
same,Mean log10 reduction in CFU/ml,"[1]; acidic pH 3.47 to 3.54, no air, 40 min",≧5.11 log10 CFU/ml
same,Mean log10 reduction in CFU/ml,"[1]; acidic pH 3.47 to 3.54, no air, 40 min, listed as hydrogen peroxide",greater than 5 log10 CFU/ml
same,Mean log10 reduction in CFU/ml,"[1]; acidic pH 3.47 to 3.54, no air, 50 min",≧5.30 log10 CFU/ml
same,Mean log10 reduction in CFU/ml,"[1]; acidic pH 3.47 to 3.54, no air, 60 min",>5.46 log10 CFU/ml
same,Mean log10 reduction in CFU/ml,"[2]; 5% w/v H2O2, no air, 10 min",1.02 (0.03) log10 CFU/ml
same,Mean log10 reduction in CFU/ml,"[2]; 5% w/v H2O2, no air, 30 min",1.26 (0.12) log10 CFU/ml
same,Mean log10 reduction in CFU/ml,"[2]; 5% w/v H2O2, no air, 60 min",1.90 (0.09) log10 CFU/ml
same,Mean log10 reduction in CFU/ml,"[2]; 5% w/v H2O2, no air, 120 min",3.45 (0.27) log10 CFU/ml
same,Mean log10 reduction in CFU/ml,"[2]; 5% w/v H2O2, no air, 120 min, listed as hydrogen peroxide",3.45 log10 CFU/ml
same,Mean log10 reduction in CFU/ml,"[2]; 7.5% w/v H2O2, no air, 10 min",0.04 (0.11) log10 CFU/ml
same,Mean log10 reduction in CFU/ml,"[2]; 7.5% w/v H2O2, no air, 30 min",0.19 (0.08) log10 CFU/ml
same,Mean log10 reduction in CFU/ml,"[2]; 7.5% w/v H2O2, no air, 60 min",0.95 (0.01) log10 CFU/ml
same,Mean log10 reduction in CFU/ml,"[2]; 7.5% w/v H2O2, no air, 120 min",4.22 (0.71) log10 CFU/ml
same,Mean log10 reduction in CFU/ml,"[2]; 7.5% w/v H2O2, no air, 120 min, listed as hydrogen peroxide",4.22 log10 CFU/ml
same,log reduction,"[3]; air, 20 min",3.13 log
same,log reduction,"[3]; air, 40 min",3.41 log
same,log reduction,"[3]; no air, 50 min",3.90 log
same,Mean log10 reduction in CFU/ml,"[3]; air 2.5 L/min, 10 min",1.37 log10 CFU/ml
same,Mean log10 reduction in CFU/ml,"[3]; air 2.5 L/min, 20 min",1.46 log10 CFU/ml
same,Mean log10 reduction in CFU/ml,"[3]; air 2.5 L/min, 30 min",1.71 log10 CFU/ml
same,Mean log10 reduction in CFU/ml,"[3]; air 2.5 L/min, 40 min",1.61 log10 CFU/ml
same,Mean log10 reduction in CFU/ml,"[3]; air 2.5 L/min, 50 min",1.75 log10 CFU/ml
same,Mean log10 reduction in CFU/ml,"[3]; air 2.5 L/min, 60 min",1.90 log10 CFU/ml
same,Mean log10 reduction in CFU/ml,"[3]; no air, 10 min",1.08 log10 CFU/ml
same,Mean log10 reduction in CFU/ml,"[3]; no air, 20 min",1.49 log10 CFU/ml
same,Mean log10 reduction in CFU/ml,"[3]; no air, 30 min",1.69 log10 CFU/ml
same,Mean log10 reduction in CFU/ml,"[3]; no air, 40 min",1.79 log10 CFU/ml
same,Mean log10 reduction in CFU/ml,"[3]; no air, 50 min",1.92 log10 CFU/ml
same,Mean log10 reduction in CFU/ml,"[3]; no air, 60 min",1.85 log10 CFU/ml
